Broadly, the pIC50 is the negative decadic logarithm of the IC50, by convention in mol/L.

The values below come from US6534546B1 (Chugai Seiyaku Kabushiki Kaisha, priority 1994, dated 2003).

Test [1] has as its system rat model of focal cerebral ischemia. The settings on record: Nagafuji et al. 1992; cited from earlier work.
Test [2] deals with gerbil model of forebrain ischemia. Particulars: Nagafuji et al. 1993; cited from earlier work.
For test [3], the target named is iNOS (Homo sapiens, UniProt P35228). The settings on record: literature reports; cited from earlier work.
Sequence of iNOS (P35228 whole entry): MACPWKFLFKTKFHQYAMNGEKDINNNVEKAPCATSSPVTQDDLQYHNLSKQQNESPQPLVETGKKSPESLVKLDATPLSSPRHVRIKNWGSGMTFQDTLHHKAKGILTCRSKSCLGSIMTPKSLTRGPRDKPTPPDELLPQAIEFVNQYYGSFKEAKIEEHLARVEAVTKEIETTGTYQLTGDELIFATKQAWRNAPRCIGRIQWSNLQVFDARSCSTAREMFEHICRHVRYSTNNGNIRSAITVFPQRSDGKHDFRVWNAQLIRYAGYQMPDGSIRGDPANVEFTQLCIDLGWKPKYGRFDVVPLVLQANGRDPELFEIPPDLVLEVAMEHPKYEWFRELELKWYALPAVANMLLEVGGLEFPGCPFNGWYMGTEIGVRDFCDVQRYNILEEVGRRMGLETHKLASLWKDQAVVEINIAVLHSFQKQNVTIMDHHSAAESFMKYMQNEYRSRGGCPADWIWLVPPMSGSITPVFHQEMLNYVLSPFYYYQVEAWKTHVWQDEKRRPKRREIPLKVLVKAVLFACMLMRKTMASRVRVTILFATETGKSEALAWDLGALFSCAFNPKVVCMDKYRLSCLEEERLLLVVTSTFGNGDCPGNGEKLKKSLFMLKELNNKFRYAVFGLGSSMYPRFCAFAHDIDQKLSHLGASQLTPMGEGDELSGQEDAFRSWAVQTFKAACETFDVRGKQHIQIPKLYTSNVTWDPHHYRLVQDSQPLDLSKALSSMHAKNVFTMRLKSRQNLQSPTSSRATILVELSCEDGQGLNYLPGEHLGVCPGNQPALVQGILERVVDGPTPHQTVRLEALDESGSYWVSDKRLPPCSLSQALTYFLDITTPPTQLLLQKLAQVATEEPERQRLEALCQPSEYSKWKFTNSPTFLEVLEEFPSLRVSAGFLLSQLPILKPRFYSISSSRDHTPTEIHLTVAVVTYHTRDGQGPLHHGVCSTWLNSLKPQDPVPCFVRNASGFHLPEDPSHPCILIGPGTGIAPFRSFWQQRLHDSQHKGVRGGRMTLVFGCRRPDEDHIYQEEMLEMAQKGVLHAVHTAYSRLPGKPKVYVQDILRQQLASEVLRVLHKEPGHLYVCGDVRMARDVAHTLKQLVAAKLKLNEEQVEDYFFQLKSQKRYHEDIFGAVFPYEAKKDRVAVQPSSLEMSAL
Test [4] has as its target T1, E-cNOS (Type 3) (Bos taurus, UniProt P29473).
T1 construct: the resulting supernatant was used as the crude enzyme sample of E-cNOS; endogenous in cells; host or cells: CPAE (cow pulmonary arterial endothelium cells), 1% Triton X-100 extract, 100,000 x g supernatant
Put plainly: biochemical. Particulars: mean of one to four independent experiments; crude enzyme, 100 nM L-[3H]arginine; read-out: IC50 value, E-cNOS (Type 3).
Experimental: The crude enzyme sample of E-cNOS was prepared by the following procedure. A cow pulmonary arterial endothielium cell (CPAE) was cultured in a MEM medium containing 20% FBS. […] A suitable amount of Ca- and Mg-free phosphate buffer (pH 7.4) was added to the precipitating cells and they were centrifuged at 1,000 rpm for 10 min. The same step was repeated to wash the cells which, upon addition of 50 mM Tris-HCl (pH 7.4) containing 1% Triton X-100 and 1 mM DTT, were left to stand in ice for 1 h. Subsequently, the mixture was homogenized for 3 min and kept in ice for 30 min with occasional stirring. Finally, the mixture was centrifuged at 100,000×g for 60 min and the resulting supernatant was used as the crude enzyme sample of E-cNOS.
The reaction was started by addition of L-[^3H]arginine and following incubation at 37° C. for 10 min, the reaction was terminated by addition of 2 ml of 50 mM Tris-HCl (pH 5.5) containing 1 mM EDTA and placing the mixture on ice. The reaction solution was passed through a cation-exchange resin column (Dowex AG50WX-8, Na^+ form, 3.2 ml) to separate the reaction product L-[^3H]citrulline from the unreacted residual substrate L-[^3H]arginine. The eluate was combined with another eluate resulting from the passage of a given amount of distilled water through the column and put into a minivial for recovery of L-[^3H]citrulline. Thereafter, a scintillation fluid was added and the contained radioactivity was measured with a liquid scintillation counter to determine the amount of L-[^3H]citrulline.
The activity of N-cNOS or E-cNOS was determined by subtracting the activity as detected in the absence of CaCl2 and calmodulin from the activity as detected in the presence of CaCl2 and calmodulin. […] The protein concentration of each crude enzyme sample was determined with a micro-assay kit of Biorad Co. Each experiment was conducted in a duplicate.

For test [5], the target named is iNOS (Type 2) (Rattus norvegicus, UniProt Q06518). The experiment in a line: biochemical. In kind it is biochemical. The settings on record: for pIC50: mean of one to four independent experiments, crude enzyme, 100 nM L-[3H]arginine, without CaCl2 and calmodulin, read-out: IC50 value, iNOS (Type 2).
Sequence of iNOS (Type 2) (Q06518 whole entry, looked up): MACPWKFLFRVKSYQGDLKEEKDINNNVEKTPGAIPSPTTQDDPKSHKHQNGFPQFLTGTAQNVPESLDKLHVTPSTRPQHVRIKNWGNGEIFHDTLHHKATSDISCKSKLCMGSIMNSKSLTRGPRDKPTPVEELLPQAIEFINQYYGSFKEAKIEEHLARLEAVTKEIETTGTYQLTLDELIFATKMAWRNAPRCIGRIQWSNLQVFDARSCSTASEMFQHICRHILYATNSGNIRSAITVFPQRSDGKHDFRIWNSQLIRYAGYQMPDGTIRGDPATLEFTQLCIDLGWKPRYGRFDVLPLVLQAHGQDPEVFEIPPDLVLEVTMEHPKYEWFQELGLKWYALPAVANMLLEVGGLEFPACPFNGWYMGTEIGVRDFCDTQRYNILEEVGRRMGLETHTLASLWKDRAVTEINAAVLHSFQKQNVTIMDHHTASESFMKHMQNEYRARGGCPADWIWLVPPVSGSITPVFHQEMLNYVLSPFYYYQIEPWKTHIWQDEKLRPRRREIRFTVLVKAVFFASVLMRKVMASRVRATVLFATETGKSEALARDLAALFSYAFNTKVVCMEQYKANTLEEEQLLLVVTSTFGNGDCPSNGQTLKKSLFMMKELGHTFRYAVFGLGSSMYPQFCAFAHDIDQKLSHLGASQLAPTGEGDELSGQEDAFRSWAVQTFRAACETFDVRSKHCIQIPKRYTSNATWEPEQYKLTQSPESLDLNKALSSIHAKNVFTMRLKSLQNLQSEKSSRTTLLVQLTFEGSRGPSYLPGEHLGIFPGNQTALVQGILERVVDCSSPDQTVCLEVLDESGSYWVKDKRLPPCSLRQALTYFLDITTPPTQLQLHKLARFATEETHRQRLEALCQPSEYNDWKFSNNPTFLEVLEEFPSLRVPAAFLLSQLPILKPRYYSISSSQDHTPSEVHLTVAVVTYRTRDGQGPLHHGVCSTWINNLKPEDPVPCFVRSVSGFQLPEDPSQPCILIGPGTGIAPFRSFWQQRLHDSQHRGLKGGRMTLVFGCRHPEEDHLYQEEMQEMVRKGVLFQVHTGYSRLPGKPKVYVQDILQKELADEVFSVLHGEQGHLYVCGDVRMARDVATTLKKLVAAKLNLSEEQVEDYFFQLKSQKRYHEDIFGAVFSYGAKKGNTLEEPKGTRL
In test [6] the target is N-cNOS (Homo sapiens, UniProt P29475). The settings on record: literature reports; cited from earlier work.
Sequence of N-cNOS (P29475 whole entry): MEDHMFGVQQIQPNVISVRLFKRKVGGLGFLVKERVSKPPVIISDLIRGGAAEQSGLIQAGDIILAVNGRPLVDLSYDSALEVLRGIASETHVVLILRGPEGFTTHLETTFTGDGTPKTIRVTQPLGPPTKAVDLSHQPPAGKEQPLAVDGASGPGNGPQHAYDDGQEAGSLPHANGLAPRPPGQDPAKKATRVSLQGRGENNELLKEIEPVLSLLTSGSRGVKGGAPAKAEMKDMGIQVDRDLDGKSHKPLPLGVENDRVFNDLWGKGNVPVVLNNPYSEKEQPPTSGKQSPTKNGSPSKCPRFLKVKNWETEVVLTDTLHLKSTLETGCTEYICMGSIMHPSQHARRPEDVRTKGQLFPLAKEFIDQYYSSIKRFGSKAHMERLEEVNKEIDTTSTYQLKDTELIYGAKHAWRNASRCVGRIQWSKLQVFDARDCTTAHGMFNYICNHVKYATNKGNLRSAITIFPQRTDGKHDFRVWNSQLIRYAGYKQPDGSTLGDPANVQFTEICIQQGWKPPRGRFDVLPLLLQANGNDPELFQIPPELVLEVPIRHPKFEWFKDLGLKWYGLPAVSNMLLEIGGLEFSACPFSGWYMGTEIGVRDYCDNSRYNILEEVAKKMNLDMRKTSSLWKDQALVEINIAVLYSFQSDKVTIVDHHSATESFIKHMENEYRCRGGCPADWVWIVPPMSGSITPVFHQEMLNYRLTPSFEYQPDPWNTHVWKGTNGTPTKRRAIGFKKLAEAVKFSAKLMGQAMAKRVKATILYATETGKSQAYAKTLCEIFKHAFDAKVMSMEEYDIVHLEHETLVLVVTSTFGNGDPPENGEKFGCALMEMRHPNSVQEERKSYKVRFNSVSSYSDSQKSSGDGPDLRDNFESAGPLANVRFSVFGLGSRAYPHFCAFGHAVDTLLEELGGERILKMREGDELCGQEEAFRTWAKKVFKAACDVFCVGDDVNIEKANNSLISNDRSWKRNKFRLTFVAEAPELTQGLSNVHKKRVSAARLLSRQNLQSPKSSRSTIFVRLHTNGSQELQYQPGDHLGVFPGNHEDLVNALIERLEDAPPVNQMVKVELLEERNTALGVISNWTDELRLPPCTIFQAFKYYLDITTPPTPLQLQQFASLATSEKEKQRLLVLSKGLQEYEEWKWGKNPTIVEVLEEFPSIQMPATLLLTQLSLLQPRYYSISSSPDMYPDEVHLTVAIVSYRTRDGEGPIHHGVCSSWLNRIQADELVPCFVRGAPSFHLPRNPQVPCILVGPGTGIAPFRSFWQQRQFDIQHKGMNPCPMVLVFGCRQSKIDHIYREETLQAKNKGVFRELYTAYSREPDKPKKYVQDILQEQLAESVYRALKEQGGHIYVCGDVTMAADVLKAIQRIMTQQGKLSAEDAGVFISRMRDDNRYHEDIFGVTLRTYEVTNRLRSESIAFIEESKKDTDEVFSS
Test [7] has as its system rat model of focal cerebral ischemia (permanent MCA occlusion). The experiment in a line: Brain edema (brain water content, dry-wet method) after 48-h occlusion of the left middle cerebral artery. In kind it is in vivo. The settings on record: 48 hours after MCA occlusion. How it is done: An experiment was conducted to evaluate the effectiveness of a compound within the scope of the invention using a rat model of focal cerebral ischemia. Such models were prepared by occluding the left middle cerebral artery (MCA) in accordance with the method already reported by the present inventors (Nagafuji et al., Neurosci. Lett. 147, 159-162, 1992; Nagafuji et al., in Brain Edema IX (Ito et al., eds.) 60, pp. 285-288, 1994, Springer-Verlag; Nagafuji et al., Neuroreport 6, 1541-1545, 1995). […]
The water content in the brain which was an index of brain edema formation was measured by the dry-wet method (Nagafuji et al., Neurosci. Lett. 147, 159-162, 1992) in the following manner. Forty-eight hours after the MCA occlusion, the rats were decapitated and both the right and left cerebral hemispheres were extracted from each animal within 60 seconds; the wet weight of the brain tissue of each hemisphere was measured with a chemical balance within 90 seconds. Thereafter, the hemispheres were dried in an oven at 105° C. for 3 days and their dry weights were measured. The water content in the brain was determined by the following forumula: (wet weight−dry weight)/(wet weight)×100 (%). […]

For test [8], the system named is rat model of focal cerebral ischemia (temporary MCA occlusion). The experiment in a line: Brain infarct volume (TTC staining) after 3-h MCA occlusion and 24-h reperfusion. In kind it is in vivo.
The subject of test [9] is focal cerebral ischemia in rats. The settings on record: administered after 3 hours of ischemia; Zhang et al. 1995; cited from earlier work.
[10] abbreviates: conclusion from Tables 49, 50 and 51.

The structures appear in SMILES notation. pIC50: −log10 of the molar value. Read-outs that look alike come from different tables or passages of the source.

T1 sequence (P29473 2-1205): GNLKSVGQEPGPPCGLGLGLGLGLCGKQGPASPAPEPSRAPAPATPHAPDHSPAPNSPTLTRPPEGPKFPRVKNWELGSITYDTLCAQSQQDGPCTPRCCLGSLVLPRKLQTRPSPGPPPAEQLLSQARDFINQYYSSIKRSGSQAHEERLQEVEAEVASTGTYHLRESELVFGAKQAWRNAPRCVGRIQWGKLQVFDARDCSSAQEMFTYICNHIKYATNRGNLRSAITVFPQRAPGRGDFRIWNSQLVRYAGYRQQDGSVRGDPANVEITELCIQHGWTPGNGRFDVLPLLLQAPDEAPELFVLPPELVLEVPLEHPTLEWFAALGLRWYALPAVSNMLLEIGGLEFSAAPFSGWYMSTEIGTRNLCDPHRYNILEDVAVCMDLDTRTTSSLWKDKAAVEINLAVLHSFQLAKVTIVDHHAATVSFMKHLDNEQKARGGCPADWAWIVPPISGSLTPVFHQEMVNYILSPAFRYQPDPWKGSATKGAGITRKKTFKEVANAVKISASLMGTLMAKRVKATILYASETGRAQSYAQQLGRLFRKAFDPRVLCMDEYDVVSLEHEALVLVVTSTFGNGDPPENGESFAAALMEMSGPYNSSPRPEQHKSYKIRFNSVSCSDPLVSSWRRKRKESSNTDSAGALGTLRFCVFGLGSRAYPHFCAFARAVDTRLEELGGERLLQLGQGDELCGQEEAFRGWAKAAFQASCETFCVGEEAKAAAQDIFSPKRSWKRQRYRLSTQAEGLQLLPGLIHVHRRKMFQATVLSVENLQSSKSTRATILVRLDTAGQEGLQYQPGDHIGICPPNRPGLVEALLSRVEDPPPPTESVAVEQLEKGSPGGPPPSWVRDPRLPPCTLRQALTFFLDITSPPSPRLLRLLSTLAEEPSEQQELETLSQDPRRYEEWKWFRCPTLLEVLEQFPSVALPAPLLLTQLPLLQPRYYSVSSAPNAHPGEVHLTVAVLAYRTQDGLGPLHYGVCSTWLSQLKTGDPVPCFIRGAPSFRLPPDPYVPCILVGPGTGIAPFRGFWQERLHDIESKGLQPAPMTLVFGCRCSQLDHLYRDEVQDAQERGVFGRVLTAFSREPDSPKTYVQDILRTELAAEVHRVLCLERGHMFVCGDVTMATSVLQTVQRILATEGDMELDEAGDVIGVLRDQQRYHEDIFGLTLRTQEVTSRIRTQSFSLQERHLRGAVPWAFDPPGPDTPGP

On to `N=C(NCCC[C@H](N)C(=O)O)N[N+](=O)[O-]` [L-NNA, N^G-nitro-L-arginine], for which the “effects against brain edema and infarction” value in [1] was “ameliorative effects”. Also, the “effects against neuronal cell death” value in test [2] was “ameliorative effects”.
Take `N=C(N)NN` [AG, aminoguanidine]: the “reported selectivity for iNOS” value in test [3] is given as “selectivity for iNOS”.
Consider `CSC(=N)NCCC[C@H](N)C(=O)O` [L-MIN, S-methyl-L-thiocitrulline, reference compound], for which the pIC50 in [4] is 6.82; in [5] it was 6.61. The “Ratio of IC50 values E-cNOS/iNOS” value in test [5] turned out to be 0.6. Also, the “iNOS inhibitory potency compared with the existing NOS inhibitors (L-MIN)” value in test [5] (setting [10]) is on record as “the strongest iNOS inhibitory activity in the existing NOS inhibitors”. For the same molecule, the “reported selectivity for N-cNOS” value in test [6] is “selectivity for N-cNOS”.
`CCSC(=N)Nc1cccc(C(C)(C)N)c1.Cl.Cl` [Example 96, N-(1-methyl-1-(3-(S-ethylisothioureido)phenyl)ethyl)amine dihydrochloride]: in test [4], the pIC50 is 6.70. Also, in test [5] (setting [10]), the “iNOS inhibitory potency compared with the existing NOS inhibitors (L-MIN)” value is “more potent in inhibiting iNOS than L-MIN” and the “selectivity for iNOS compared to E-cNOS, compared with the existing NOS inhibitors (L-NIO)” value is reported as “more selective inhibitory effect on iNOS than L-NIO”. Also, the “Ratio of IC50 values E-cNOS/iNOS” value in test [5] (index of selectivity) stood at 6.9. In addition, the pIC50 in test [5] is 7.54. Besides, in [7] (bolus 0.12-3.6 μg/kg then infusion 0.01-0.3 μg/kg/min), the “increase in the percentage of the water content (brain edema), dose dependence” value was “reduced in a dose-dependent manner”. Besides, the “percentage of the water content in the stroke hemisphere to the contralateral hemisphere” value in [7] (sustained infusion 0.3 μg/kg/min following intravenous bolus 3.6 μg/kg, p<0.01, control group about 103.8%) is “about 102.1%”. Also, the “infarction, dose dependence” value in [8] (3-h MCA occlusion and 24-h reperfusion, bolus 0.12-3.6 μg/kg then infusion 0.01-0.3 μg/kg/min) is recorded as “ameliorated in a dose-dependent manner”. Moreover, in test [8] (rat, in vivo, iv), the “decrease of infarct volume” value is given as “about 79.7%”.
As to `COC(=O)[C@@H](N)CCCNC(=N)N[N+](=O)[O-]` [L-NAME, N^G-nitro-L-arginine methyl ester, reference compound], in [4], the pIC50 was 6.03. In addition, the infarct volume result in [9] was “decreased significantly”.
